Literature values as cited in US20040180006A1, “Methods and compositions for blocking the calcium cascade” (priority 2003, published 2004).
Like-named read-outs stand apart in the source and are kept apart here.

Key:
[1] = tested on: mast cell plasma membrane potential; conditions: for effect on second (delayed) decrease of bis-oxonol fluorescence: induced by compound 48/80 or antigenic stimulation
[2] = tested on: rat basophilic leukemia cells (RBL 2H3); conditions: RBL 2H3 cells stimulated by immunoglobulin E-antigen; read-out: concentration required to inhibit histamine secretion from RBL 2H3 cells, immunoglobulin E-antigen
[3] = tested on: guinea pig trachea; conditions: 10^-4 to 10^-3 M
[4] = tested on: rat peritoneal mast cells

Row | Molecule | effect on second (delayed) decrease of bis-oxonol fluorescence [1] | IC50 [2] [µM] | IgE-dependent contraction of guinea pig trachea [3] | contraction of guinea pig trachea induced by endogenous histamine [3] | IC50 ([4]; peritoneal cells stimulated by imunoglobulin E-antigen, read-out: IC50 of histamine secretion, imunoglobulin E-antigen) [µM] | IC50 ([4]; peritoneal cells stimulated by ionophore A23187, read-out: IC50 of histamine secretion, ionophore A23187) [µM] | IC50 ([4]; peritoneal cells stimulated by phorbol 12-myristate 13-acetate, read-out: IC50 of histamine secretion, phorbol 12-myristate 13-acetate) [µM] | IC50 ([4]; peritoneal cells stimulated by substance P, read-out: IC50 of histamine secretion, substance P) [µM] | effect on first (fast) decrease of bis-oxonol fluorescence ([1]; induced by compound 48/80)
1 | C[C@@H]1O[C@@H](O[C@H]2C[C@@H](O)[C@]3(CO)[C@H]4[C@H](O)C[C@]5(C)[C@@H](C6=CC(=O)OC6)CC[C@]5(O)[C@@H]4CC[C@]3(O)C2)[C@H](O)[C@H](O)[C@H]1O [ouabain] | inhibited |  |  |  |  |  |  |  | 
2 | zinc gluconate | did not alter | 140 | inhibited | unable to affect | 18 | 1.6 | 1.9 | 5.4 | inhibited
